Assays:
[1] = Radioactivity at determined time points after oral application of radiolabeled substances; type: in vivo; settings: radiolabeled substance
[2] = Bioavailability (absolute) of oral liposomal Vancomycin versus i.v.; type: in vivo; settings: male, Wistar, rat, whole blood; oral liposomal formulation containing 1 mol-% of the cyclic CPP-liposomes, rats; read-out: bioavailability (absolute) in comparison with the i.v. application
Method: The animal study was performed according to local authorities using male Wistar rats with a body weight of about 200-250 g. For the determination of the bioavailability (absolute) the glycopeptide antibiotic Vancomycin was radiolabeled with ^131I and incorporated into the liposomal formulation containing 1 mol-% of the cyclic CPP-phospholipid-conjugate and compared with Vancomycin i.v. as described previously. At several time points, the blood levels of Vancomycin were measured by direct counting of the radiolabeled sample. Briefly, groups (n≥3) of male Wistar rats were formed. Prior to 12 h of the experiment, the rats were kept without food, but with free access to water. Oral application of the liposomes took place by gavage. The blood was removed, weighed and the radioactivity was measured using a Berthold LB 951 G counter in comparison with standards. The blood-associated activity was related to the total injected dose (ID) and expressed as a percentage of the total injected dose per gram of tissue (% ID/g).

[3] = Oral availability of radiolabeled Adalimumab; type: in vivo, male Wistar rats; settings: liposomes containing 1 mol-% cyclic CPP-conjugate vs radiolabeled free antibody, 6 h, rats
Method: The animal study was performed according to local authorities using male Wistar rats with a body weight of about 200-250 g. For the determination of the bioavailability (absolute), the antibody Adalimumab (Humira®) was radiolabeled with ^131I and incorporated into the liposomal formulation containing 1 mol-% of the cyclic CPP-phospholipid-conjugate and compared with the free antibody as described previously. After 6 h, the blood levels were measured by direct counting of the radiolabeled sample. Prior to 12 h of the experiment, the rats were kept without food, but with free access to water. Oral application of the liposomes and the radiolabeled free antibody took place by gavage. The blood was removed, weighed and the radioactivity was measured using a Berthold LB 951 G counter in comparison with standards. The blood-associated activity was related to the total injected dose (ID) and expressed as a percentage of the total injected dose per gram of tissue (% ID/g) (FIG. 16).

Row | Compound | mucosal uptake by the liposomal formulations [1] | bioavailability [2] | oral availability [3]
1 | CCCCCCCCCCCCCCCC(=O)N[C@@H](CCC(=O)NCCCC[C@H](NC(=O)[C@H](C)NC(=O)[C@H](C)NC(=O)[C@H](CCC(N)=O)NC(=O)CNC(=O)[C@H](CCC(=O)O)NC(=O)[C@H](CC(C)C)NC(=O)[C@H](Cc1ccc(O)cc1)NC(=O)[C@H](CO)NC(=O)[C@H](CO)NC(=O)[C@@H](NC(=O)[C@H](CC(=O)O)NC(=O)[C@H](CO)NC(=O)[C@@H](NC(=O)[C@H](Cc1ccccc1)NC(=O)[C@@H](NC(=O)CNC(=O)[C@H](CCC(=O)O)NC(=O)[C@H](C)NC(=O)[C@@H](N)Cc1cnc[nH]1)[C@@H](C)O)[C@@H](C)O)C(C)C)C(=O)N[C@@H](CCC(=O)O)C(=O)N[C@@H](Cc1ccccc1)C(=O)N[C@H](C(=O)N[C@@H](C)C(=O)N[C@@H](Cc1c[nH]c2ccccc12)C(=O)N[C@@H](CC(C)C)C(=O)N[C@H](C(=O)N[C@@H](CCCNC(=N)N)C(=O)NCC(=O)N[C@@H](CCCNC(=N)N)C(=O)NCC(=O)O)C(C)C)[C@@H](C)CC)C(=O)O [Liraglutide] | strongly enhanced mucosal uptake |  | 
2 | CN[C@H](CC(C)C)C(=O)N[C@H]1C(=O)N[C@@H](CC(N)=O)C(=O)N[C@H]2C(=O)N[C@H]3C(=O)N[C@H](C(=O)N[C@H](C(=O)O)c4cc(O)cc(O)c4-c4cc3ccc4O)[C@H](O)c3ccc(c(Cl)c3)Oc3cc2cc(c3O[C@@H]2O[C@H](CO)[C@@H](O)[C@H](O)[C@H]2O[C@H]2C[C@](C)(N)[C@H](O)[C@H](C)O2)Oc2ccc(cc2Cl)[C@H]1O [Vancomycin] |  | ≤ 50% | 
3 | Adalimumab | strongly enhanced mucosal uptake |  | strong increase

From patent publication US10653796B2, “Liposomes containing cell penetrating peptides and tetraetherlipids for the oral delivery of macromolecules” (Universität Heidelberg, priority 2015, dated 2020)
